# Results: ChEMBL document CHEMBL5523729, “Development of Degraders of Cyclin-Dependent Kinases 4 and 6 Based on Rational Drug Design” (J Med Chem, 2024)
# pIC50: −log10 of the molar value. Activity calls are given as the source filed them. No cut-off for these calls is given here.
# Columns and labels:
# [1] = target: T1, Protein cereblon/Cyclin-dependent kinase 6 (Homo sapiens, UniProt Q00534+Q96SW2); assay: PROTAC activity at CDK6/CRBN in human Jurkat cells assessed as protein degradation by Western blot analysis; format: cell-based
# Target sequence in this assay (Q00534 whole entry): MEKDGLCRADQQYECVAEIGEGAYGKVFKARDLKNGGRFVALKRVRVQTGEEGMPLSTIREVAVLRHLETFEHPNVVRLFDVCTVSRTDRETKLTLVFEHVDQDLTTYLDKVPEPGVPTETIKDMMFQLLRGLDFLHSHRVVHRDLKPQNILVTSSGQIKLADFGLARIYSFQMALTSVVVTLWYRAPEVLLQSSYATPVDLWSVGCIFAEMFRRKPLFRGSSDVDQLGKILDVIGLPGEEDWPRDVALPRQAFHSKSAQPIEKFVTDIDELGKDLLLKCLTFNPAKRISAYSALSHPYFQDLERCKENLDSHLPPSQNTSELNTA
# Target sequence in this assay (Q96SW2 whole entry): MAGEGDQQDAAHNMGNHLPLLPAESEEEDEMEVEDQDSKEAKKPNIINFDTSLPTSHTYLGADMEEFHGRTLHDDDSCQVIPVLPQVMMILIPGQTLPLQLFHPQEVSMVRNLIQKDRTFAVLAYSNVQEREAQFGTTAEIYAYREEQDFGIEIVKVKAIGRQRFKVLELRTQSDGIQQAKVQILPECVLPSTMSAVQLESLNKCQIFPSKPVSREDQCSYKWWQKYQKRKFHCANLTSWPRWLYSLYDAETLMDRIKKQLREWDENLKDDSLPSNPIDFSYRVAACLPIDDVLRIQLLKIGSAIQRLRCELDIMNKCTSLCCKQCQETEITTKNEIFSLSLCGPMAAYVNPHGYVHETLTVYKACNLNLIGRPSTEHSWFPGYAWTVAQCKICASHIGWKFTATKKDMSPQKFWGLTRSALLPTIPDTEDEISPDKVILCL
# [2] = target: T2, Protein cereblon/Cyclin-dependent kinase 4 (Homo sapiens, UniProt P11802+Q96SW2); assay: PROTAC activity at CDK4/CRBN in human Jurkat cells assessed as maximal protein degradation by Western blot analysis relative to control; format: cell-based
# Target sequence in this assay (P11802 2-303 limits assumed): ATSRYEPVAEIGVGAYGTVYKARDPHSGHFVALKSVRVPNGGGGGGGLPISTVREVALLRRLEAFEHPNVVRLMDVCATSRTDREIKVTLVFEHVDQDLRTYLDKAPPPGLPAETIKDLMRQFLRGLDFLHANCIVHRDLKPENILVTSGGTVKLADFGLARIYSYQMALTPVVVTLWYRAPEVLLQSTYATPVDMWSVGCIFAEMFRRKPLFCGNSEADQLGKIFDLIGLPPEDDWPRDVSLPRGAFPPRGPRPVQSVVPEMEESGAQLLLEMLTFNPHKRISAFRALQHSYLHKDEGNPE
# Target sequence in this assay (Q96SW2 whole entry partner): as the sequence (Q96SW2 whole entry) above
# [3] = target: T2, Protein cereblon/Cyclin-dependent kinase 4; assay: PROTAC activity at CDK4/CRBN in human Jurkat cells assessed as protein degradation by Western blot analysis; format: cell-based
# Target sequence in this assay (P11802 whole entry): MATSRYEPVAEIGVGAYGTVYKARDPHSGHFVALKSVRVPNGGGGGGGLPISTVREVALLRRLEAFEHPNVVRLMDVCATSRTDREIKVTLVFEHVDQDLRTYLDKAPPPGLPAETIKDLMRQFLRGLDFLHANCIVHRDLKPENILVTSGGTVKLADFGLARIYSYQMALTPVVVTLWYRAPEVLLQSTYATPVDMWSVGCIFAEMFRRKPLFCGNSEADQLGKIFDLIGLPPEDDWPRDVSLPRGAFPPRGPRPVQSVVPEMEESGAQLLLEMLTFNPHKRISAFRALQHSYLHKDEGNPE
# Target sequence in this assay (Q96SW2 whole entry): as the sequence (Q96SW2 whole entry) above
# [4] = target: T1, Protein cereblon/Cyclin-dependent kinase 6; assay: PROTAC activity at CDK6/CRBN in human Jurkat cells assessed as maximal protein degradation by Western blot analysis relative to control; format: cell-based
# Target sequence in this assay (Q00534 whole entry, looked up): as the sequence (Q00534 whole entry) above
# Target sequence in this assay (Q96SW2 whole entry, looked up): as the sequence (Q96SW2 whole entry) above
# [5] = target: Cyclin-dependent kinase 4 (Homo sapiens, UniProt P11802); assay: Inhibition of CDK4 (unknown origin)
# Jurkat [6] = assay: Anti-proliferative activity against human Jurkat cells assessed as cell growth inhibition measured after 72 hrs by CCK8 assay; format: functional, cell-based
# [7] = target: Cyclin-dependent kinase 6 (Homo sapiens, UniProt Q00534); assay: Inhibition of CDK6 (unknown origin)
# [8] = target: T2, Protein cereblon/Cyclin-dependent kinase 4; assay: PROTAC activity at CDK4/CRBN in human Jurkat cells assessed as protein degradation after 3 to 24 hrs by Western blot analysis; format: cell-based; details: dose 1-1000 nM, time 3-24 hrs
# Target sequence in this assay (P11802 2-303 limits assumed): as the sequence (P11802 2-303 limits assumed) above
# Target sequence in this assay (Q96SW2 whole entry partner): as the sequence (Q96SW2 whole entry) above
# Jurkat [9] = assay: Cell cycle arrest in human Jurkat cells assessed as accumulation of cells at G1 phase measured after 24 hrs by flow cytometry; format: functional, cell-based; details: dose 0.1-1 µM
# [10] = target: T2, Protein cereblon/Cyclin-dependent kinase 4; assay: PROTAC activity at CDK4/CRBN in human Jurkat cells assessed as protein degradation at 1 to 1000 nM by Western blot analysis; format: cell-based; details: dose 1-1000 nM, time 3-24 hrs, TDE = time-dependent effect
# Target sequence in this assay (P11802 2-303 limits assumed): as the sequence (P11802 2-303 limits assumed) above
# Target sequence in this assay (Q96SW2 whole entry partner): as the sequence (Q96SW2 whole entry) above
# [11] = target: T2, Protein cereblon/Cyclin-dependent kinase 4; assay: PROTAC activity at CDK4/CRBN in human Jurkat cells assessed as protein degradation at 1 uM measured after 24 hrs by Western blot analysis; format: cell-based
# Target sequence in this assay (P11802 2-303 limits assumed): as the sequence (P11802 2-303 limits assumed) above
# Target sequence in this assay (Q96SW2 whole entry partner): as the sequence (Q96SW2 whole entry) above
# [12] = target: Protein cereblon/Cyclin-dependent kinase 1 (Homo sapiens) (UniProt P06493+Q96SW2); assay: PROTAC activity at CDK1/CRBN in human Jurkat cells assessed as protein degradation at 1 uM measured after 24 hrs by Western blot analysis; format: cell-based
# [13] = target: T1, Protein cereblon/Cyclin-dependent kinase 6; assay: PROTAC activity at CDK6/CRBN in human Jurkat cells assessed as protein degradation at 1 uM after 12 hrs by Western blot analysis; format: cell-based
# Target sequence in this assay (Q00534 whole entry, looked up): as the sequence (Q00534 whole entry) above
# Target sequence in this assay (Q96SW2 whole entry, looked up): as the sequence (Q96SW2 whole entry) above
# Jurkat [14] = assay: Anti-tumor activity against human Jurkat cells assessed as increase in cleaved caspase-3 level by Western blot analysis; format: functional, cell-based; details: dose 1-1000 nM
# Jurkat [15] = assay: Anti-tumor activity against human Jurkat cells assessed as suppression of p-RB (Ser780) at 1 uM by Western blot analysis; format: functional, cell-based
# [16] = target: Protein cereblon/Cyclin-dependent kinase 5 (Homo sapiens) (UniProt Q00535+Q96SW2); assay: PROTAC activity at CDK5/CRBN in human Jurkat cells assessed as protein degradation at 1 uM measured after 24 hrs by Western blot analysis; format: cell-based
# [17] = target: Protein cereblon/Cyclin-dependent kinase 8 (Homo sapiens) (UniProt P49336+Q96SW2); assay: PROTAC activity at CDK8/CRBN in human Jurkat cells assessed as protein degradation at 1 uM measured after 24 hrs by Western blot analysis; format: cell-based
# [18] = target: Protein cereblon/Cyclin-dependent kinase 2 (Homo sapiens) (UniProt P24941+Q96SW2); assay: PROTAC activity at CDK2/CRBN in human Jurkat cells assessed as protein degradation at 1 uM measured after 24 hrs by Western blot analysis; format: cell-based
# [19] = target: Protein cereblon/Cyclin-dependent kinase 7 (Homo sapiens) (UniProt P50613+Q96SW2); assay: PROTAC activity at CDK7/CRBN in human Jurkat cells assessed as protein degradation at 1 uM measured after 24 hrs by Western blot analysis; format: cell-based
# [20] = target: T2, Protein cereblon/Cyclin-dependent kinase 4; assay: PROTAC activity at CDK4/CRBN in human Jurkat cells assessed as protein degradation at 1 uM after 12 hrs by Western blot analysis; format: cell-based
# Target sequence in this assay (P11802 2-303 limits assumed): as the sequence (P11802 2-303 limits assumed) above
# Target sequence in this assay (Q96SW2 whole entry partner): as the sequence (Q96SW2 whole entry) above
# [21] = target: T1, Protein cereblon/Cyclin-dependent kinase 6; assay: PROTAC activity at CDK6/CRBN in human Jurkat cells assessed as protein degradation at 1 to 1000 nM by Western blot analysis; format: cell-based; details: dose 1-1000 nM, time 3-24 hrs, TDE = time-dependent effect
# Target sequence in this assay (Q00534 whole entry, looked up): as the sequence (Q00534 whole entry) above
# Target sequence in this assay (Q96SW2 whole entry, looked up): as the sequence (Q96SW2 whole entry) above
# Jurkat [22] = assay: Induction of apoptosis in human Jurkat cells assessed as apoptotic cells measured after 24 hrs by Annexin V-FITC/PI staining based analysis; format: functional, cell-based; details: dose 0.1-1 µM
# [23] = target: T1, Protein cereblon/Cyclin-dependent kinase 6; assay: PROTAC activity at CDK6/CRBN in human Jurkat cells assessed as protein degradation after 3 to 24 hrs by Western blot analysis; format: cell-based; details: dose 1-1000 nM, time 3-24 hrs
# Target sequence in this assay (Q00534 whole entry, looked up): as the sequence (Q00534 whole entry) above
# Target sequence in this assay (Q96SW2 whole entry, looked up): as the sequence (Q96SW2 whole entry) above
# Jurkat [24] = assay: Anti-tumor activity against human Jurkat cells assessed as increase in cleaved PARP level by Western blot analysis; format: functional, cell-based; details: dose 1-1000 nM
# Protein cereblon/Cyclin-dependent kinase 1 (Homo sapiens), sequence (P06493 whole entry, looked up): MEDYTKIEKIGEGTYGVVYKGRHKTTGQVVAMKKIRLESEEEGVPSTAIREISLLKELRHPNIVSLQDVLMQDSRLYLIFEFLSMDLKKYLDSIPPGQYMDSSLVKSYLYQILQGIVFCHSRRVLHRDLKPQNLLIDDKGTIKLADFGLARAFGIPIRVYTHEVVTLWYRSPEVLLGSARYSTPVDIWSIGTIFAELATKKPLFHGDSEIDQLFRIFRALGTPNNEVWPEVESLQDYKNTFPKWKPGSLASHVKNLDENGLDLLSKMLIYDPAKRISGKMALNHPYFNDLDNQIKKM
# Protein cereblon/Cyclin-dependent kinase 1 (Homo sapiens), sequence (Q96SW2 whole entry, looked up): as the sequence (Q96SW2 whole entry) above
# Cyclin-dependent kinase 6, sequence (Q00534 whole entry): as the sequence (Q00534 whole entry) above
SMILES,DC50 [1] [nM],Emax [2] [%],DC50 [3] [nM],Emax [4] [%],also measured
O=C1CCC(N2C(=O)c3cccc(NC(=O)CCCCCCC(=O)N4CCN(c5ccc(Nc6ncc7ncc(=O)n(C8CCCC8)c7n6)cc5)CC4)c3C2=O)C(=O)N1 (configuration not stated),43.3,60,434,92,–
O=c1cnc2cnc(Nc3ccc(N4CCNCC4)cc3)nc2n1C1CCCC1,–,–,–,–,pIC50 [5]: 8.11; pIC50 (Jurkat [6]): 5.83; pIC50 [7]: 7.06
CC(=O)c1c(C)c2cnc(Nc3ccc(N4CCNCC4)cn3)nc2n(C2CCCC2)c1=O [PALBOCICLIB],–,–,–,–,pIC50 (Jurkat [6]): 5.83
O=C1CCC(N2C(=O)c3ccc(N4CCN(CC5CCN(C(=O)CN6CCN(c7ccc(Nc8ncc9ncc(=O)n(C%10CCCC%10)c9n8)cc7)CC6)CC5)CC4)cc3C2=O)C(=O)N1 (configuration not stated),2.3,68,138,90,–
O=C1CCC(N2C(=O)c3cccc(NC(=O)CCCCCn4cc(CN5CCN(c6ccc(Nc7ncc8ncc(=O)n(C9CCCC9)c8n7)cc6)CC5)nn4)c3C2=O)C(=O)N1 (configuration not stated),16.3,42,> 1000,95,–
O=C1CCC(N2C(=O)c3ccc(N4CCN(C(=O)CN5CCN(c6ccc(Nc7ncc8ncc(=O)n(C9CCCC9)c8n7)cc6)CC5)CC4)cc3C2=O)C(=O)N1 (configuration not stated),3.9,75,9.8,86,–

# Now from value to compound, other results behind:
DC50 [1] [nM],Emax [2] [%],DC50 [3] [nM],Emax [4] [%],SMILES,also measured
58,95,14.9,85,O=C1CCC(N2C(=O)c3cccc(NC(=O)CCCCCN4CCN(c5ccc(Nc6ncc7ncc(=O)n(C8CCCC8)c7n6)cc5)CC4)c3C2=O)C(=O)N1 (configuration not stated),–
> 1000,14,> 1000,40,O=C(CN1CCN(c2ccc(Nc3ncc4ncc(=O)n(C5CCCC5)c4n3)cc2)CC1)NCCCCNc1cccc2c1C(=O)N(C1CCC(=O)NC1=O)C2=O (configuration not stated),–
5.3,53,557,94,O=C1CCC(N2C(=O)c3cccc(NCCOCCOCCN4CCN(c5ccc(Nc6ncc7ncc(=O)n(C8CCCC8)c7n6)cc5)CC4)c3C2=O)C(=O)N1 (configuration not stated),–
6.6,41,> 1000,95,O=C1CCC(N2C(=O)c3cccc(NC(=O)CCCCCCN4CCN(c5ccc(Nc6ncc7ncc(=O)n(C8CCCC8)c7n6)cc5)CC4)c3C2=O)C(=O)N1 (configuration not stated),–
2.5,100,10.5,96,O=C(CCCCN1CCN(c2ccc(Nc3ncc4ncc(=O)n(C5CCCC5)c4n3)cc2)CC1)NCCNc1cccc2c1C(=O)N(C1CCC(=O)NC1=O)C2=O (configuration not stated),Activity [8]: Dose-Dependent Effect; Activity (Jurkat [9]): Dose-Dependent Effect; Activity [10]: Tde; Activity [11]: inactive; Activity [12]: inactive; Activity [13]: 100%; Activity (Jurkat [14]): Dose-Dependent Effect; pIC50 (Jurkat [6]): 6.74; Activity (Jurkat [15]): Active; Activity [16]: inactive; Activity [17]: inactive; Activity [18]: inactive; Activity [19]: inactive; Activity [20]: 100%; Activity [21]: Tde; Activity (Jurkat [22]): Dose-Dependent Effect; Activity [23]: Dose-Dependent Effect; Activity (Jurkat [24]): Dose-Dependent Effect
93,60,162,91,O=C1CCC(N2C(=O)c3cccc(NCCOCCN4CCN(c5ccc(Nc6ncc7ncc(=O)n(C8CCCC8)c7n6)cc5)CC4)c3C2=O)C(=O)N1 (configuration not stated),–
